For 19 compounds, Ki results are on record in patent US8404679B2, “Pyrrolidine derivatives as NK2 receptor antagonists” (Hoffmann-La Roche Inc., priority 2008, dated 2013).

The target of this experiment is T1, human NK2 receptor (Homo sapiens, UniProt P21452).
T1 construct: purchased Perkin Elmer biosignal Inc. 6110510
T1 sequence (P21452 1-398): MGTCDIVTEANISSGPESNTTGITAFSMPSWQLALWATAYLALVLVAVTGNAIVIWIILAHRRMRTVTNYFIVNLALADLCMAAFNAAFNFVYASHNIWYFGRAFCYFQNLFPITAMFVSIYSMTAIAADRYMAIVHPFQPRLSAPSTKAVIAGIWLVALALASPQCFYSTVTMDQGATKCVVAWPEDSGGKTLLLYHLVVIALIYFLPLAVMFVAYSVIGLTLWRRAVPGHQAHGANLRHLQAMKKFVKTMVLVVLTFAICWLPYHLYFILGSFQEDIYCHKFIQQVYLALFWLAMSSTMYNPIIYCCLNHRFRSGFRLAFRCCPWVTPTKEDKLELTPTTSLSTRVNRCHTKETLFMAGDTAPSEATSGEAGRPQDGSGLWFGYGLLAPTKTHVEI
Nature of the experiment: [3H]SR48968 competition binding assay. The note with it: [3H]SR48968 displacement, membranes of CHO cells stably expressing recombinant human NK2 receptor; Ki from IC50 by Cheng-Prussoff. On the procedure:
[^3H]SR48968 Competition Binding Assay
hNK2 receptor binding experiment were performed using [^3H]SR48968 (Catalog No. TRK398, specific activity: 27.0 Ci/mmol, Amersham, GE Healthcare UK limited, Buckinghamshire, UK) and membrane isolated from CHO cells stably expressing recombinant human NK2 receptor (product No. 6110510, Perkin Elmer biosignal Inc., Shelton, Conn., USA). After thawing, the membrane homogenates were centrifuged at 48,000×g for 10 min at 4° C., the pellets were resuspended in the 50 mM Tris-HCl, 3 mM MnCl2, 4 μg/mL Chymostatin, 0.04% BSA binding buffer at pH 7.4 to a final assay concentration of 6.5 μg protein/well. For inhibition experiments, membranes were incubated with [^3H]SR48968 at a concentration equal to KD value of radioligand and 10 concentrations of the inhibitory compound (0.0003-10 μM) (in a total reaction volume of 500 μl) for 75 min at room temperature (RT). At the end of the incubation, membranes were filtered onto unitfilter (96-well white microplate with bonded GF/C filter preincubated 1 h in 0.3% polyethylenimine, Packard BioScience, Meriden, Conn.) with a Filtermate 196 harvester (Packard BioScience) and washed 4 times with ice-cold 50 mM Tris-HCl, pH 7.4 buffer. Nonspecific binding was measured in the presence of 10 μM 1-{2-[(R)-3-(3,4-dichloro-phenyl)-1-(3,4,5-trimethoxy-benzoyl)-pyrrolidin-3-yl]-ethyl}-4-phenyl-piperidine-4-carboxylic acid amide. The radioactivity on the filter was counted (5 min) on a Packard Top-count microplate scintillation counter with quenching correction after addition of 45 μl of microscint 40 (Canberra Packard S. A., Zürich, Switzerland) and shaking for 1 h. Inhibition curves were fitted according to the Hill equation: y=100/(1+(x/IC50)^nH), where nH=slope factor using Excel-fit 4 software (Microsoft). IC50 values were derived from the inhibition curve and the affinity constant (Ki) values were calculated using the Cheng-Prussoff equation Ki=IC50/(1+[L]/KD) where [L] was the concentration of radioligand and KD was its dissociation constant at the receptor, derived from the saturation isotherm.
For the compound `CN(C(=O)c1ccc(OC(F)(F)F)cc1)[C@@H]1CN(C(=O)N2CCN(S(C)(=O)=O)CC2)C[C@H]1c1ccc(Cl)c(Cl)c1` (racemic) [Example 16, rac-N-[(3S,4R)-4-(3,4-Dichloro-phenyl)-1-(4-methanesulfonyl-piperazine-1-carbonyl)-pyrrolidin-3-yl]-N-methyl-4-trifluoromethoxy-benzamide], the Ki stood at 5.09 nM.

On to `CN(C(=O)c1cccc(F)c1)[C@@H]1CN(C(=O)N2CCN(S(C)(=O)=O)CC2)C[C@H]1c1ccc(Cl)c(Cl)c1` (racemic) [Example 17, rac-N-[(3S,4R)-4-(3,4-Dichloro-phenyl)-1-(4-methanesulfonyl-piperazine-1-carbonyl)-pyrrolidin-3-yl]-3-fluoro-N-methyl-benzamide], for which the inhibitory constant (Ki) stood at 95.3 nM.

With `CN(C(=O)c1cc(F)cc(C(F)(F)F)c1)[C@@H]1CN(C(=O)N2CCN(S(C)(=O)=O)CC2)C[C@H]1c1ccc(Cl)c(Cl)c1` (racemic) [Example 18, rac-N-[(3S,4R)-4-(3,4-Dichloro-phenyl)-1-(4-methanesulfonyl-piperazine-1-carbonyl)-pyrrolidin-3-yl]-3-fluoro-N-methyl-5-trifluoromethyl-benzamide], the Ki was found to be 20.7 nM.

As to `CN(C(=O)c1ccc(C(F)(F)F)c(F)c1)[C@@H]1CN(C(=O)N2CCN(S(C)(=O)=O)CC2)C[C@H]1c1ccc(Cl)c(Cl)c1` (racemic) [Example 20, rac-N-[(3S,4R)-4-(3,4-Dichloro-phenyl)-1-(4-methanesulfonyl-piperazine-1-carbonyl)-pyrrolidin-3-yl]-3-fluoro-N-methyl-4-trifluoromethyl-benzamide], the Ki worked out at 2.44 nM.

In the case of `CN(C(=O)c1cccc(Cl)c1F)[C@@H]1CN(C(=O)N2CCN(S(C)(=O)=O)CC2)C[C@H]1c1ccc(Cl)c(Cl)c1` (racemic) [Example 21, rac-3-Chloro-N-[(3S,4R)-4-(3,4-dichloro-phenyl)-1-(4-methanesulfonyl-piperazine-1-carbonyl)-pyrrolidin-3-yl]-2-fluoro-N-methyl-benzamide], the inhibition constant (Ki) turned out to be 13.1 nM.

For `CN(C(=O)c1cccc(C(F)(F)F)c1F)[C@@H]1CN(C(=O)N2CCN(S(C)(=O)=O)CC2)C[C@H]1c1ccc(Cl)c(Cl)c1` (racemic) [Example 22, rac-N-[(3S,4R)-4-(3,4-Dichloro-phenyl)-1-(4-methanesulfonyl-piperazine-1-carbonyl)-pyrrolidin-3-yl]-2-fluoro-N-methyl-3-trifluoromethyl-benzamide], the Ki amounted to 4.63 nM.

Turning to `CN(C(=O)c1ccc2occc2c1)[C@@H]1CN(C(=O)N2CCN(S(C)(=O)=O)CC2)C[C@H]1c1ccc(Cl)c(Cl)c1` (racemic) [Example 23, rac-Benzofuran-5-carboxylic acid [(3S,4R)-4-(3,4-dichloro-phenyl)-1-(4-methanesulfonyl-piperazine-1-carbonyl)-pyrrolidin-3-yl]-methyl-amide], the inhibition constant (Ki) stood at 10.2 nM.

As for `CN(C)c1ccc(C(=O)N(C)[C@@H]2CN(C(=O)N3CCN(S(C)(=O)=O)CC3)C[C@H]2c2ccc(Cl)c(Cl)c2)cc1` (racemic) [Example 24, rac-N-[(3S,4R)-4-(3,4-Dichloro-phenyl)-1-(4-methanesulfonyl-piperazine-1-carbonyl)-pyrrolidin-3-yl]-4-dimethylamino-N-methyl-benzamide], the Ki turned out to be 1.72 nM.

On to `Cc1cc(C(=O)N(C)[C@@H]2CN(C(=O)N3CCN(S(C)(=O)=O)CC3)C[C@H]2c2ccc(Cl)c(Cl)c2)ccc1F` (racemic) [Example 25, rac-N-[(3S,4R)-4-(3,4-Dichloro-phenyl)-1-(4-methanesulfonyl-piperazine-1-carbonyl)-pyrrolidin-3-yl]-4-fluoro-3,N-dimethyl-benzamide], for which the Ki was 6.01 nM.

Turning to `COc1ccc(C(=O)N(C)[C@@H]2CN(C(=O)N3CCN(S(C)(=O)=O)CC3)C[C@H]2c2ccc(Cl)c(Cl)c2)cc1F` (racemic) [Example 26, rac-N-[(3S,4R)-4-(3,4-Dichloro-phenyl)-1-(4-methanesulfonyl-piperazine-1-carbonyl)-pyrrolidin-3-yl]-3-fluoro-4-methoxy-N-methyl-benzamide], the inhibition constant (Ki) turned out to be 9.45 nM.

Take `CN(C(=O)c1ccc(F)c(F)c1)[C@@H]1CN(C(=O)N2CCN(S(C)(=O)=O)CC2)C[C@H]1c1ccc(Cl)c(Cl)c1` (racemic) [Example 27, rac-N-[(3S,4R)-4-(3,4-Dichloro-phenyl)-1-(4-methanesulfonyl-piperazine-1-carbonyl)-pyrrolidin-3-yl]-3,4-difluoro-N-methyl-benzamide]: the inhibitory constant (Ki) came out at 16.2 nM.

As to `CN(C(=O)c1ccc2c(c1)OC(F)(F)O2)[C@@H]1CN(C(=O)N2CCN(S(C)(=O)=O)CC2)C[C@H]1c1ccc(Cl)c(Cl)c1` (racemic) [Example 28, rac-2,2-Difluoro-benzo[1,3]dioxole-5-carboxylic acid [(3S,4R)-4-(3,4-dichloro-phenyl)-1-(4-methanesulfonyl-piperazine-1-carbonyl)-pyrrolidin-3-yl]-methyl-amide], the Ki was determined as 2.04 nM.

For `CN(C(=O)c1ccc(-n2cccc2)cc1)[C@@H]1CN(C(=O)N2CCN(S(C)(=O)=O)CC2)C[C@H]1c1ccc(Cl)c(Cl)c1` (racemic) [Example 30, rac-N-[(3S,4R)-4-(3,4-Dichloro-phenyl)-1-(4-methanesulfonyl-piperazine-1-carbonyl)-pyrrolidin-3-yl]-N-methyl-4-pyrrol-1-yl-benzamide], the inhibition constant Ki was found to be 4.59 nM.

As to `CN(C(=O)c1ccc2c(c1)CCO2)[C@@H]1CN(C(=O)N2CCN(S(C)(=O)=O)CC2)C[C@H]1c1ccc(Cl)c(Cl)c1` (racemic) [Example 31, rac-2,3-Dihydro-benzofuran-5-carboxylic acid [(3S,4R)-4-(3,4-dichloro-phenyl)-1-(4-methanesulfonyl-piperazine-1-carbonyl)-pyrrolidin-3-yl]-methyl-amide], the Ki came to 14.8 nM.

As to `CN(C(=O)c1ccc(F)c(Cl)c1)[C@@H]1CN(C(=O)N2CCN(S(C)(=O)=O)CC2)C[C@H]1c1ccc(Cl)c(Cl)c1` (racemic) [Example 32, rac-3-Chloro-N-[(3S,4R)-4-(3,4-dichloro-phenyl)-1-(4-methanesulfonyl-piperazine-1-carbonyl)-pyrrolidin-3-yl]-4-fluoro-N-methyl-benzamide], the Ki was 4.57 nM.

Turning to `COc1ccc(C(=O)N(C)[C@@H]2CN(C(=O)N3CCN(S(C)(=O)=O)CC3)C[C@H]2c2ccc(Cl)c(Cl)c2)cc1Cl` (racemic) [Example 33, rac-3-Chloro-N-[(3S,4R)-4-(3,4-dichloro-phenyl)-1-(4-methanesulfonyl-piperazine-1-carbonyl)-pyrrolidin-3-yl]-4-methoxy-N-methyl-benzamide], the inhibition constant (Ki) was found to be 8.57 nM.

In the case of `CN(C(=O)c1ccc2nccnc2c1)[C@@H]1CN(C(=O)N2CCN(S(C)(=O)=O)CC2)C[C@H]1c1ccc(Cl)c(Cl)c1` (racemic) [Example 34, rac-Quinoxaline-6-carboxylic acid [(3S,4R)-4-(3,4-dichloro-phenyl)-1-(4-methanesulfonyl-piperazine-1-carbonyl)-pyrrolidin-3-yl]-methyl-amide], the Ki was 76.7 nM.

Consider `CC(C#N)c1cccc(C(=O)N(C)[C@@H]2CN(C(=O)N3CCN(S(C)(=O)=O)CC3)C[C@H]2c2ccc(Cl)c(Cl)c2)c1` (mixture of isomers) [Example 35, rac-3-(Cyano-methyl-methyl)-N-[(3S,4R)-4-(3,4-dichloro-phenyl)-1-(4-methanesulfonyl-piperazine-1-carbonyl)-pyrrolidin-3-yl]-N-methyl-benzamide], for which the Ki is 28.5 nM.

With `CN(C(=O)c1ccc(F)c(C(F)(F)F)c1)[C@@H]1CN(C(=O)N2CCN(S(C)(=O)=O)CC2)C[C@H]1c1ccc(Cl)c(Cl)c1` (racemic) [Example 36, rac-N-[(3S,4R)-4-(3,4-Dichloro-phenyl)-1-(4-methanesulfonyl-piperazine-1-carbonyl)-pyrrolidin-3-yl]-4-fluoro-N-methyl-3-trifluoromethyl-benzamide], the Ki is 3.59 nM.

For orientation: Ki means a dissociation constant, usually derived from enzyme kinetics or from competition with a known ligand.
